Reference: patent publication US12594292B2, “Antiviral prodrugs, intermediate-and long-acting formulations and methods” (priority 2022, dated 2026)
Like-named read-outs stand apart in the source and are kept apart here.

Key:
[1] = Cytotoxicity (CC50) in human PBMCs; type: cell-based; conditions: human PBMCs
[2] = system: HIV-1; conditions: for EC50: HIV infected human PBMCs
Description: (§1) Antiviral activities were determined in HIV infected human PBMCs.

[3] = system: HIV-1; assay: microbe, parasite or virus in culture; conditions: Human immunodeficiency virus 1, PBMC
Description: as §1

[4] = system: human PBMCs; assay: Cytotoxicity (CC50) in human PBMCs; type: cell-based; conditions: read-out: CC50
[5] = system: HFF cells; assay: Persistence of TFVpp in HFF cells after a 3 day exposure; conditions: HFF cells, 1 micromolar drug for 3 days
Description: HFF cells were exposed to 1 micromolar drug for 3 days. At days 0, 1, 2, 4, 7, 14, 21, and 28, cells were trypsinized, counted, and processed for LC/MS measurement of TFVpp. Data were expressed at ftg/cell. nm=not meaningful; ftg—gemtogram.

[6] = variation of the diester substituent of ODE-TFV

What does the source list for `CCCCCCCCCCCCCCCCCCOCCOP(=O)(OCc1ccccc1)OC[C@H]1O[C@@H](n2cc(F)c(N)nc2=O)CS1` (stereo partly shown) [ODE-Bn-P-Emtricitabine, Octadecyloxyethyl benzyl-phospho-emtricitabine]?
CC50 [1]: 54700 ± 45300 nM; Selectivity Index ([2]; CC50/EC50): 2989; EC50 [3]: 18.3 ± 8.7 nM

What does the source list for `CCCCCCCCCCCCCCCCCCOCCOP(=O)(CO[C@H](C)Cn1cnc2c(N)ncnc21)OCc1ccccc1` (stereo partly shown) [ODE-Bn-TFV, Octadecyloxyethyl benzyl tenofovir]?
CC50 [1]: 8720 nM; Selectivity Index ([2]; CC50/EC50): 5130; EC50 [3]: 1.7 ± 1.5 nM

With `CCCCCCCCCCCCCCCCCCOCCOP(=O)(CO[C@H](C)Cn1cnc2c(N)ncnc21)OCC` (stereo partly shown) [ODE-Et-TFV] as the compound, how does the CC50 [4, 6] read?
Its CC50 is 5360 nM.

What about the “Cmax of TFVpp” value [5] of the same compound?
The value was 0.91 ftg/cell.

And the “Tmax of TFVpp” value [5]?
The value was 0 h.

What about the “Selectivity Index” value [2, 6] of the same compound?
The value was 95.

And the EC50 [2, 6]?
The EC50 was 57 nM.

For `CCCCCCCCCCCCCCCCCCOCCOP(=O)(CO[C@H](C)Cn1cnc2c(N)ncnc21)OC` (stereo partly shown) [ODE-Me-TFV], which CC50 [4, 6] is on record?
Its CC50 is 2980 nM.

What about the “Cmax of TFVpp” value [5] of the same compound?
The value was 9.3 ftg/cell.

What about the “T1/2 of TFVpp” value [5] of the same compound?
The value was 2.0.

What about the “T1/10 of TFVpp” value [5] of the same compound?
The value was 11.3.

And the “Tmax of TFVpp” value [5]?
Its value is 0 h.

What about the “Selectivity Index” value [2, 6] of the same compound?
Its value is 677.

And the EC50 [2, 6]?
The EC50 was 5.2 nM.

Which CC50 [1] does the source give for `CCCCCCCCCCCCCCCCCCOCCOP(=O)(O)OC[C@H]1O[C@@H](n2cc(F)c(N)nc2=O)CS1` [ODE-P-Emtricitabine, Octadecyloxyethyl-phospho-emtricitabine] here?
The CC50 was 35600 ± 12900 nM.

What about the Selectivity Index ([2]; CC50/EC50) of the same compound?
The Selectivity Index was 3708.

What about the EC50 [3] of the same compound?
Its EC50 is 9.6 ± 3.1 nM.

Which results are given for `CCCCCCCCCCCCCCCCCCOCCOP(=O)(O)CO[C@H](C)Cn1cnc2c(N)nc(N)nc21` [ODE-PMPDAP]?
CC50 ([4]; human PBMCs): 7000 ± 7100 nM; Selectivity Index ([2]; CC50/EC50): 77,700; EC50 [2]: 0.09 ± 0.05 nM

With `CCCCCCCCCCCCCCCCCCOCCOP(=O)(CO[C@H](C)Cn1cnc2c(N)ncnc21)Oc1ccccc1` (stereo partly shown) [ODE-Ph-TFV] as the compound, how does the CC50 [4, 6] read?
The CC50 was 3930 nM.

And the “Cmax of TFVpp” value [5]?
Its value is 8.1 ftg/cell.

And the “T1/2 of TFVpp” value [5]?
Its value is 3.0.

And the “T1/10 of TFVpp” value [5]?
The value was 15.1.

What about the “Tmax of TFVpp” value [5] of the same compound?
Its value is 24 h.

And the “Selectivity Index” value [2, 6]?
Its value is 1640.

And the EC50 [2, 6]?
The EC50 was 2.4 nM.

With `CCCCCCCC/C=C\CCCCCCCCOCCOP(=O)(O)CO[C@H](C)Cn1cnc2c(N)nc(N)nc21` [OLE-PMPDAP, Oleyloxyethyl 9-(R)-[(2-phosphonomethoxy)propyl]-2,6-diaminopurine] as the compound, how does the CC50 [1] read?
The CC50 was 15000 ± 12300 nM.

And the Selectivity Index ([2]; CC50/EC50)?
Its Selectivity Index is 150,000.

And the EC50 [3]?
Its EC50 is 0.1 ± 0.03 nM.
